Patent US7842324B2 (Senomyx, Inc., priority 2005, dated 2010)
Like-named read-outs stand apart in the source and are kept apart here.

Tests used:
Human Panelists [1] = experiment: Line Scale sensory testing human taste test (Table C); format: in vivo; conditions: low sodium buffer pH 7.1
Description: Purpose: To create a dose-response curve for perceived sweetness intensity of fructose-glucose concentrations. Test samples containing experimental compound are compared to this dose-response curve to determine equivalent sweetness intensity. This type of study requires a number of evaluations in order to obtain statistically significant data, so the test may be repeated with the same or additional panelists.
Overview: A group of eight or more panelists taste solutions including fructose-glucose at various concentrations, as well as the experimental compound, both with and without added fructose-glucose. Panelists rate sweetness intensity of all samples on an unstructured horizontal line scale, anchored from 0 to 10, where 0 equals no sweetness and 10 equals intense sweetness. Scores for sweetness intensity are averaged across panelists. Then using the average scores and/or equation of the line for the fructose-glucose dose-response curve, equivalent sweetness fructose-glucose concentrations are determined for the samples containing experimental compound.
Procedure: Eight or more subjects are used for the Line Scale tests. Subjects have been previously familiarized with the key attribute taste and are trained to use the 0 to 10 unstructured line scale. Subjects refrain from eating or drinking (except water) for at least 1 hour prior to the test. Subjects eat a cracker and rinse with water several times to clean the mouth.
Fructose-glucose solutions are provided at a wide range of concentrations, such as 0%, 2%, 4%, 6%, 8%, and 10% fructose-glucose, in order to create the dose-response curve. Samples containing experimental compound are prepared both alone and in a 6% fructose-glucose solution. All samples are made up in low sodium buffer pH 7.1. In order to aid dispersion, solutions can also be made up in 0.1% ethanol.
The solutions are dispensed in 20 ml volumes into 1 oz. sample cups and served to the subjects at room temperature. All samples are presented in randomized counterbalanced order to reduce response bias. Further, two sessions of testing may be used to check panel precision.
Subjects taste each sample individually and rate sweetness intensity on the line scale prior to tasting the next sample. All samples are expectorated. Subjects may retaste the samples but can only use the volume of sample given. Subjects must rinse with water between samples. Eating an unsalted cracker between sample pairs may be required depending on the samples tasted.
The scores for each sample are averaged across subjects and standard error is calculated. The dose-response curve is plotted graphically, and this may be used to ensure the panel is rating accurately; i.e. increasing the concentration of fructose-glucose should correspond to increased average scores for sweetness. A 2-way ANOVA (factors being samples and panelists) and multiple comparison tests (such as Tukey's Honestly Significant Difference test) can be used to determine differences among samples and/or panelists. A 3-way ANOVA, with sessions as the third factor, can be used to determine if there is any difference in the ratings between sessions.

[2] = biological target: T1, hT1R2/hT1R3 sweet receptor expressed in HEK293 cell line (Homo sapiens, UniProt Q7RTX0+Q8TE23); experiment: In vitro hT1R2/hT1R3-HEK293 taste receptor activation assay (FLIPR); format: cell-based
T1 construct: expressed in transfected cells; host or cells: HEK293 derivative stably expressing Gα15 and hT1R2/hT1R3, clone S-9
T1 sequence (Q8TE23 20-839): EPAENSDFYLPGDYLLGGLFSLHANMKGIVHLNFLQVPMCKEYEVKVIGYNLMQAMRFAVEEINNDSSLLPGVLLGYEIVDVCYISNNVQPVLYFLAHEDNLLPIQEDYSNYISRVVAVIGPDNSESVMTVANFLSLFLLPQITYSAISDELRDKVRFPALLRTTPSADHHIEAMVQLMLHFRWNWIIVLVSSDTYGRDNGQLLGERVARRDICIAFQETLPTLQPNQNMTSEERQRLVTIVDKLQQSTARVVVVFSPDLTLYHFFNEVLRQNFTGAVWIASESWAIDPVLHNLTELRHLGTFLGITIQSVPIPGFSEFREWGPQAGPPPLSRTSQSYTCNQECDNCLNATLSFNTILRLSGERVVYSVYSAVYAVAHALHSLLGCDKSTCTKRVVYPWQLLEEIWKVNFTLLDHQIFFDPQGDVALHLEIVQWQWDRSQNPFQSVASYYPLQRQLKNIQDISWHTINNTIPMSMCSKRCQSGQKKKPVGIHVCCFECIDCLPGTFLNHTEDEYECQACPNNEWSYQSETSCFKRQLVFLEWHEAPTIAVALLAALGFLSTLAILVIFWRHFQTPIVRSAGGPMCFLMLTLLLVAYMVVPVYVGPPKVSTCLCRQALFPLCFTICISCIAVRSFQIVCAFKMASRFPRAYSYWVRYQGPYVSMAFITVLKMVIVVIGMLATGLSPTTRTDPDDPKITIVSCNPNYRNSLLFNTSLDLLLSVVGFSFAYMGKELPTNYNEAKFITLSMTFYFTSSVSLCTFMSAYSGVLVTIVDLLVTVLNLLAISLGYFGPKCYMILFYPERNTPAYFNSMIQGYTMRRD
T1 sequence (Q7RTX0 21-852): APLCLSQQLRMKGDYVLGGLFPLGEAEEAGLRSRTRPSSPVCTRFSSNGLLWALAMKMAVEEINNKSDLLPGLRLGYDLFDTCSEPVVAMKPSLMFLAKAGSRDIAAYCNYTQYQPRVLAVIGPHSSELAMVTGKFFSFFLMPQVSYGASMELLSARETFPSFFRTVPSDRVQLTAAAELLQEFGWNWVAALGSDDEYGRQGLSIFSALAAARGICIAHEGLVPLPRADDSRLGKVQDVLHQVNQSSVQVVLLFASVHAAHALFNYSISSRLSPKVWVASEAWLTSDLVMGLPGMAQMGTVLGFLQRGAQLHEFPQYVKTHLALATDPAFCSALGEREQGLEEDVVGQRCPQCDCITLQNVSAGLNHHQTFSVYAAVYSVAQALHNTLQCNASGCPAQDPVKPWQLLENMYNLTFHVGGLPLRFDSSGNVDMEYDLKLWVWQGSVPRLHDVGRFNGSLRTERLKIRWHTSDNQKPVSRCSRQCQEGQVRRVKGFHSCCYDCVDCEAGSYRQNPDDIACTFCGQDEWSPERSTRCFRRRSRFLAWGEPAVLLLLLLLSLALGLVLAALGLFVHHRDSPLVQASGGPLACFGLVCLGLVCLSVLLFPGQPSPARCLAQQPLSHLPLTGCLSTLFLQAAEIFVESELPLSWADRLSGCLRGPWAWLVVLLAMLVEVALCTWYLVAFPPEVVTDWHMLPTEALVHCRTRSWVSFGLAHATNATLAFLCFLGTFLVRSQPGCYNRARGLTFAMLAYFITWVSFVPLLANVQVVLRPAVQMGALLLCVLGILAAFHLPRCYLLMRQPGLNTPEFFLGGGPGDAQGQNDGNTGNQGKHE
Outline: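 HEK293 cells stably expressing Gα15 and hT1R2/hT1R3 were loaded with Fluo-3AM (4 μM, 1 h, room temperature), then stimulated at room temperature in D-PBS. Peak fluorescence (ex 480/em 535 nm) was normalized to basal. Dose-responses were run in duplicate over 60 nM–30 μM, normalized to 400 mM D-fructose, and EC50 fitted by free-Hill non-linear regression.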

Human Panelists [3] = experiment: Difference from Reference human taste test (Table B); format: in vivo; conditions: 5 μM compound + 6% fructose/glucose, pH 7.1
Description: Purpose: To determine how the intensity of a test sample of an experimental compound differs from that of a reference sample in terms of sweetness. This type of study requires a larger number of evaluations in order to obtain statistically significant data, so the test may be repeated with the same or additional panelists.
Subjects rate the difference in intensity of the test sample compared to the reference sample for the key attribute on a scale of −5 (much less sweet than the reference) to +5 (much sweeter than the reference). A score of 0 indicates the test sample is equally as sweet as the reference.
Procedure: Ten or more Subjects are used for the Difference from Reference tests. Subjects have been previously familiarized with the key attribute taste and are trained to use the −5 to +5 scale. Subjects refrain from eating or drinking (except water) for at least 1 hour prior to the test. Subjects eat a cracker and rinse with water four times to clean the mouth. […]
The scores for each test are averaged across Subjects and standard error is calculated. Panel accuracy can be determined using the score from the blind reference test. […]

[4] = 5 μM compound + 6% fructose/glucose
[5] = read-out: EC50 for activation of a hT1R2/hT1R3 sweet receptor expressed in HEK293 cell line
[6] = 10 μM compound + 6% fructose/glucose

SMILES	EC50 [2, 5]	EC50 ([2]; Table A, read-out: SWEET EC50)	also measured
CC(C)CNC(=O)C(C)(C)c1ccc(-c2cccn2C)cc1 [Compound 34, N-isobutyl-2-methyl-2-(4-(1-methyl-1H-pyrrol-2-yl)phenyl)propanamide]	960 nM		Perceived Equivalent Sweet Solution (Human Panelists [1]; [4]): Equal to 8% fructose/ % fructose/glucose; melting point: 59 to 60 °C
CC[C@@H](CO)NC(=O)C(C)(C)c1ccc(-c2cccc(COC)c2)cc1 [Compound 39, (S)-N-(1-hydroxybutan-2-yl)-2-(3′-(methoxymethyl)biphenyl-4-yl)-2-methylpropanamide]	1870 nM		Perceived Equivalent Sweet Solution (Human Panelists [1]; 15 μM compound + 6% fructose/glucose): Equal to 8% fructose/ % fructose/glucose; melting point: 73 to 75 °C
CC(C)CNC(=O)C(C)(C)c1ccc(-c2cncnc2)cc1 [Compound 43, N-isobutyl-2-methyl-2-(4-(pyrimidin-5-yl)phenyl)propanamide]	1010 nM		Perceived Equivalent Sweet Solution (Human Panelists [1]; [6]): Equal to 8% fructose/ % fructose/glucose
CCC(C)CNC(=O)C(C)(C)c1ccc(-c2cncnc2)cc1 (centres unmarked) [Compound 25, 2-methyl-N-(2-methylbutyl)-2-(4-(pyrimidin-5-yl)phenyl)propanamide]	230 nM		Perceived Equivalent Sweet Solution (Human Panelists [1]; [6]): Equal to 10% fructose/ % fructose/glucose
CC(C)CNC(=O)C(C)(C)c1ccc(-c2cncc(C#N)n2)cc1 [Compound 20, 2-(4-(6-cyanopyrazin-2-yl)phenyl)-N-isobutyl-2-methylpropanamide]	20 nM		Perceived Equivalent Sweet Solution (Human Panelists [1]; [6]): Equal to 10% fructose/ % fructose/glucose; Perceived Equivalent Sweet Solution (Human Panelists [1]; 10 μM compound alone): Equal to 6% fructose/ % fructose/glucose
Cc1cscc1-c1ccc(C(C)(C)C(=O)NCC(C)C)cc1 [Compound 2, N-Isobutyl-2-methyl-2-(4-(4-methylthiophen-3-yl)phenyl)propanamide]	850 nM		Perceived Equivalent Sweet Solution (Human Panelists [3]): ≥ 9% fructose/glucose
COCc1cncc(-c2ccc(C(C)(C)C(=O)NCC(C)C)cc2)c1 [Compound 32, N-isobutyl-2-(4-(5-(methoxymethyl)pyridin-3-yl)phenyl)-2-methylpropanamide]	910 nM		Perceived Equivalent Sweet Solution (Human Panelists [1]; [6]): Equal to 8% fructose/ % fructose/glucose
COCc1cccc(-c2ccc(C(C)(C)C(=O)NCC(C)C)cc2OC)c1 [Compound 27, N-isobutyl-2-(2-methoxy-3′-(methoxymethyl)biphenyl-4-yl)-2-methylpropanamide]	260 nM		Perceived Equivalent Sweet Solution (Human Panelists [1]; [4]): Equal to 8% fructose/ % fructose/glucose
COCc1cccc(-c2ccc(C(C)(C)C(=O)NCC(C)C)cc2)c1 [Compound 30, N-isobutyl-2-(3′-(methoxymethyl)biphenyl-4-yl)-2-methylpropanamide]	610 nM		Perceived Equivalent Sweet Solution (Human Panelists [1]; [4]): Equal to 10% fructose/ % fructose/glucose
COc1cccc(-c2ccc(C(C)C(=O)NCC(C)C)cc2)c1 (centres unmarked) [Compound A7]		5580 nM	
CC[C@@H](C)NC(=O)C(C)(C)c1ccc(-c2cncc(C#N)n2)cc1 [Compound A50]		370 nM	
CSc1ccccc1-c1ccc(C(C)(C)C(=O)NCC(C)C)cc1 [Compound A14]		9000 nM	
COCc1cccc(-c2ccc(C(C)(C)C(=O)NCC(C)C)cn2)c1 [Compound A31]		3790 nM	
CC(C)CNC(=O)C(C)(C)c1ccc(-c2cnco2)cc1 [Compound A35]		11500 nM	
CC(C)CNC(=O)Cc1ccc(-c2ccccc2)c(F)c1 [Compound A8]		7500 nM	
CCC(C)NC(=O)[C@@H](C)c1ccc(-c2ccccc2)c(F)c1 (some centres unmarked) [Compound A2]		2380 nM	
CC[C@@H](C)NC(=O)C(C)(C)c1ccc(-c2cccc(COC)c2)cc1 [Compound A53]		550 nM	
